# From patent US5736523A, “Antineoplastic heteronapthoquinones” (Biochem Pharma Inc., priority 1995, dated 1998)
# pIC50: −log10 of the molar value. Structures can show the parent of a compound that is named as a salt.
# Tested on: SKVLB (Ovarian; multidrug resistant)
# Assay: In vitro cytotoxicity, microculture tetrazolium (MTT) assay, SKVLB
# Format: cell-based, human
# Details: Homo sapiens, SKVLB, multidrug resistant; read-out: IC50
# Procedure: In Vitro Cytotoxicity--Microculture Tetrazolium Assay
# The microculture tetrazolium assay was used to test in vitro cytotoxicity. This assay is described in Plumb, J. A. et al., 1989 Cancer Research 49, 4435-4440, which is herein incorporated by reference. The cytotoxicity of compounds towards tumor cells is measured in vitro using the assay. This assay method is based upon the ability of live, but not dead cells to reduce the yellow water soluble dye 3-(4;5-dimethylthiazol-2-yl)-2,5-diphenyltetrazolium bromide (MTT) to its water insoluble purple formazan product.
# Human Tumor Cell lines, used were:
# SKVLB (Ovarian; multidrug resistant)--Dr. V. Ling, Ontario
# The cells were maintained in exponential growth in culture in minimal essential media (MEM) supplemented with non-essential amino acids, and containing 15% (v/v) fetal bovine serum, 5 mM L-glutamine, 1 mM sodium pyruvate, and 0.1 U/ml insulin. All cell lines were grown at 37° C. in an atmosphere of 5% CO2 in air.
# Test compounds: 20 mM in DMSO and diluted to a final concentration of 200 μM in culture medium before use.
# The following is the generic description of the assay method. It should be noted that although the conditions described work well with the cells listed above, the initial plating density and the MTT concentration used should be verified for each new cell line used to test compounds.
# For each assay, doxorubicin is included as an inter-assay standard. This allows us to monitor the behaviour of the assay in general, and in particular, to check that the SKVLB line has maintained its resistant phenotype.
# The plate layout is done in the following manner: The assays are carried out in 96-well (8 well×12 well) microtiter plates. Serial dilutions of the compound are tested along the length of the plate. A 1:3 serial dilution of compound in culture medium covers a concentration range from 100 μM to 1.7 nM. Each concentration of compound is tested in quadruplet, allowing two compounds to be tested per plate. Wells containing no cells (blank) and cells with no test compound (control) are included on each plate.
# Cells are plated out in 100 μl of culture medium in the microtiter plates at a density of around 1,500-4,000 cells per well. The plates are incubated overnight to allow the cells to become adherent after which the test compound is added (100 μl of appropriate dilution per well). The cells are incubated with test compound at 37° C. for 48 h after which the compound is replaced with fresh medium. After a further 48 h incubation at 37° C., 50 μl of MTT solution (2 mg/ml) is added to each well. The plates are incubated in the dark for 4 h at 37° C. after which the medium is removed. The MTT formazan product is extracted from the cells by the addition of 200 μl DMSO followed by 50 μl of Sorensen's buffer. The plates are shaken briefly and the absorbance at 570 nm is read using a Molecular Devices UV max plate reader. Curves are fit to the MTT assay data using a four parameter logistic equation, and the data are normalized to fit a 0% to 100% survival scale.
row,Structure (SMILES),pIC50
1,"CO[C@H]1O[C@H](C(=O)Nc2ccccc2)CC2=C1C(=O)c1ccccc1C2=O (relative stereo) [BCH2041, (1,3-trans)-1-methoxy-3-N-anilinylcarbonyl-5,10-dioxo-3,4,5,10-tetrahydro-1H-naphtho-[2,3-c]-pyran]",5.00

# Same assay, conditions: ratio SKVLB / SKOV3
row,Structure (SMILES),VLB/OV3
1,"CC(=O)[C@H]1CC2=C(C(=O)c3ccccc3C2=O)[C@H](O[C@H]2C[C@H](NC(=O)C(F)(F)F)[C@H](Br)[C@H](C)O2)O1 [BCH2047, (1S,3R,1'S)-Methyl-(1-[2',3',4',6'-tetradeoxy-3'-trifluoroacetamido-4'-bromo-L-lyxohexopyranose]-5,10-dioxo-3,4,5,10-tetrahydronaphthaleno-[2,3-c]pyran-3-yl) ketone]",31
2,"CO[C@H]1O[C@H](C(=O)O)CC2=C1C(=O)c1ccccc1C2=O (relative stereo) [BCH2045, (1,3-trans)-1-methoxy-3-carboxyl-5,10-dioxo-3,4,5,10-tetrahydro-1H-naphtho-[2,3-c]-pyran]",3
3,"COC1OC(C(=O)Nc2ccccc2)=CC2=C1C(=O)c1ccccc1C2=O (centres unmarked) [BCH2044, 1-methoxy-3-N-anilinylcarbonyl-5,10-dioxo-5,10-dihydro-1H-naphtho-[2,3-c]-pyran]",3.55
4,"COC(=O)[C@H](CC(C)C)NC(=O)[C@@H](N)CO[C@H]1O[C@H](C(C)=O)CC2=C1C(=O)c1ccccc1C2=O [BCH2000, (1S,2'S,3S,5'S)-Methyl-(1-O-[Serine-Leucine-Me ester]-5,10-dioxo-3,4,5,10-tetrahydro-1-H-naphtho [2,3-c]pyran-3-yl) ketone hydrochloride]",69.89
5,"COC(=O)[C@]1(C)CC2=C(C(=O)c3ccccc3C2=O)[C@H](O[C@H]2C[C@H](NC(=O)C(F)(F)F)[C@H](O)[C@H](C)O2)O1 [BCH2081, (1'S,1S,3S)-1-(3'-trifluoroacetamido-2',3',6'-trideoxylyxohexopyranose)-3-methoxycarbonyl-3-methyl-5,10-dioxo-4,5,10-trihydro-1H-naphtho-[2,3-c]-pyran]",15
6,"CC(=O)O[C@@H]1[C@H](C)O[C@@H](O[C@H]2O[C@H](C(C)=O)CC3=C2C(=O)c2ccccc2C3=O)C(Br)[C@@H]1OC(C)=O (stereo partly drawn) [BCH2100, (1'S,1R,3S)-methyl-(1-[2',6'-dideoxy-3',4'-diacetoxy-2'-bromo-L-lyxohexopyranose]-5,10-dioxo-3,4,5,10-tetrahydronaphtho-[2,3-c]-pyran-3-yl) ketone]",3.04
7,"CO[C@H]1O[C@H](C(=O)Nc2ccccc2)CC2=C1C(=O)c1ccccc1C2=O (relative stereo) [BCH2041, (1,3-trans)-1-methoxy-3-N-anilinylcarbonyl-5,10-dioxo-3,4,5,10-tetrahydro-1H-naphtho-[2,3-c]-pyran]",5
8,"CC(=O)O[C@H]1[C@@H](I)[C@H](O[C@H]2O[C@H](C(C)=O)CC3=C2C(=O)c2ccccc2C3=O)O[C@@H](C)[C@H]1OC(C)=O [BCH1666, (1'S,1R,3S)-methyl-(1-[2',6'-dideoxy-3'-4'-diacetoxy-2'-iodo-L-lyxohexopyranose]-5,10-dioxo-3,4,5,10-tetrahydronaphtho [2,3-c]-pyran-3-yl) ketone]",0.75
9,"COC1OC(C(C)=O)=CC2=C1C(=O)c1ccccc1C2=O (centres unmarked) [BCH2129, 3-Aceto-5,10-dioxo-1-methoxy-5,10-dihydro-1H-naphtho-(2,3-c)-pyran]",2.95
10,"CC(=O)C1CC2=C(C(=O)c3ccccc3C2=O)C(OCC2CCCNC2)O1 (mixture of isomers) [BCH2061, Methyl-(1-O-[3-piperidinemethanol]-5,10-dioxo-3,4,5,10-tetrahydronaphthaleno-[2,3-c]pyran3-yl) ketone hydrochloride salt, mixture of isomers]",18
11,"COC(=O)[C@H](CC(C)C)NC(=O)[C@H](CO[C@H]1O[C@H](C(C)=O)CC2=C1C(=O)c1ccccc1C2=O)NC(=O)OC(C)(C)C [BCH1998, (1S,2'S,3S,5'S)-Methyl-(1-O-[N-BOC-Serine-Leucine-Me ester]-5,10-dioxo-3,4,5,10-tetrahydro-1-H-naphtho [2,3-c]pyran-3-yl) ketone]",13.28
12,"CO[C@H]1C[C@H](O[C@H]2O[C@H](C(C)=O)CC3=C2C(=O)c2ccccc2C3=O)O[C@@H](C)[C@H]1OS(C)(=O)=O [BCH2070, (1'-S,1-R,3-S)-methyl-(1-[2',3',4',6' tetradeoxy-3'-methoxy-4'-O-methanesulfonyl-L-lyxohexopyranose)-5,10-dioxo-3,4,5,10 tetrahydronaphtho-[2,3-c]pyran-3-yl) ketone]",14.34-15
13,"CC(=O)[C@H]1CC2=C(C(=O)c3ccc(O)cc3C2=O)[C@H](O[C@H]2C[C@H](NC(=O)C(F)(F)F)[C@H](O)[C@H](C)O2)O1 [BCH1180, (1'S,1S,3R)-Methyl (5,10-dioxo-1-(2',3',6'-trideoxy-3'-trifluoroacetamido-L-lyxohexopyranose)-7-hydroxy-3,4,5,10-tetrahydro [2,3-C]pyran-3-yl) ketone]",10.20
14,"CC(=O)C1CC2=C(C(=O)c3ccccc3C2=O)C(O[C@H]2C[C@H](NC(=O)C(F)(F)F)[C@H](OS(C)(=O)=O)[C@H](C)O2)O1 (mixture of isomers) [BCH2095, (1'-S,1-S,3-R) and (1'-S,1-R,3-S)-methyl-(1-[2',3',4',6' tetradeoxy-3'-trifluoroacetamido-4'-O-methane-sulfonyl-L-lyxohexopyranose)-5,10-dioxo-3,4,5,10 tetrahydronaphtho-[2,3-c]pyran-3-yl) ketone]",8.16
15,"COC1OC(C(=O)NCCN2CCOCC2)=CC2=C1C(=O)c1ccccc1C2=O (centres unmarked) [BCH2170, 1-methoxy-3-[2-(N-morpholino)ethylaminocarbonyl]-5,10-dioxo-5,10-dihydro-1H-naphtho-[2,3-c]-pyran]",1.52
16,"CC(=O)[C@@H]1CC2=C(C(=O)c3ccccc3C2=O)[C@@H](O[C@H]2C[C@H](NC(=O)C(F)(F)F)[C@H](I)[C@H](C)O2)O1 [BCH1620, (1'-S,1-R,3-S)-methyl-(1-[2',3',6'-trideoxy-3'-trifluoroacetamido-4'-iodo-L-lyxohexopyranose]-5,10-dioxo-3,4,5,10-tetrahydronaphtho-[2,3-c]-pyran-3-yl)-ketone]",51.31
17,"CC[C@H]1CC2=C(C(=O)c3ccccc3C2=O)[C@H](O[C@H]2C[C@H](N)[C@H](O)[C@H](C)O2)O1 [BCH2021, (1'S,1S,3S)-5,10-dioxo-3-ethyl-1-(2',3',6'-trideoxy-3'-amino-L-lyxohexopyranose)-3,4,5,10-tetrahydro-1H-naphtho-[2,3-c]-pyran]",3.74
18,"COC(=O)C1=CC2=C(C(=O)c3ccccc3C2=O)C(OC)O1 (centres unmarked) [BCH2160, 1-methoxy-3-methoxy carbonyl-5,10-dioxo-5,10-dihydro-1H-naphtho-[2,3-c]-pyran]",1.85
19,"COC(=O)[C@]1(C)CC2=C(C(=O)c3ccccc3C2=O)[C@@H](O[C@H]2C[C@H](NC(=O)C(F)(F)F)[C@H](O)[C@H](C)O2)O1 [BCH2077, (1'S,1R,3S)-1-(3'-trifluoroacetamido-2',3',6'-trideoxy-L-lyxohexopyranose)-3-methoxycarbonyl-3-methyl-3,4,5,10-tetrahydro-5,10-dioxo-1H-naphtho-[2,3-c] pyran]",11
20,"CO[C@H]1C[C@H](O[C@H]2O[C@H](C(C)=O)C[C@]34O[C@]23C(=O)c2ccccc2C4=O)O[C@@H](C)[C@H]1OS(C)(=O)=O [BCH2141, (1'-S,1-R,3-S,4a-S,10a-S)-methyl-(1-[2',3',4',6'-tetradeoxy-3'-methoxy-4'-O-methanesulfonyl-L-lyxohexopyranose)-4a,10a-epoxy-5,10-dioxo-3,4,5,10-tetrahydronaphtho-[2,3-c]pyran-3-yl) ketone]",1.23
21,"CC(=O)[C@]1(C)CC2=C(C(=O)c3ccccc3C2=O)[C@H](O[C@H]2C[C@H](NC(=O)C(F)(F)F)[C@H](O)[C@H](C)O2)O1 [BCH2090, (1'S,1S,3S)-1-(3'-trifluoroacetamido-2',3',6'-trideoxy-L-lyxohexopyranose)-3-acetyl-3-methyl-5,10-dioxo-4,5,10-trihydro-1H-naphtho-[2,3-c]-pyran]",3.29
22,"CC(=O)[C@H]1CC2=C(C(=O)c3ccccc3C2=O)[C@H](O[C@@H]2O[C@@H](C)[C@@H](O)[C@@H](NC(=O)C(F)(F)F)C2I)O1 (stereo partly drawn) [BCH2022, (1'S,1S,3R)-methyl-(1-[2',3',6'-trideoxy-2'-iodo-3'-trifluoroacetamido-4'-hydroxy-L-lyxohexopyranose]-5,10-dioxo-3,4,5,10-tetrahydronaphtho-[2,3-c]-pyran-3-yl) ketone]",4.23
